Measured values reported in patent publication US20230192653A1, “Novel Therapeutic Methods” (GUANGZHOU MAXINOVEL PHARMACEUTICALS CO., LTD., priority 2020, published 2023).
Values joined by “and” are separate entries in the source; they are usually repeats but may differ in a detail not shown here. Equal entries are not always repeated. “Also recorded” adds a separate entry of the source.

Key:
Format in all cases: in vivo, human
[1] = tested on: Gastric Cancer (patient tumor cells in mini-PDX capsules); test: Mini-PDX assay, gastric cancer; settings: Compound 1 12 mg per kg oral once daily 7 days, effective = P ≤ 0.05, per patient sample
Protocol: (§1) A mini patient-derived xenograft (mini-PDX) is used to assess the sensitivity of different tumors to treatment with Compound 1 (MAX-40279). In this experiment, clinical tumor samples from patients are treated in the mini-PDX by oral administration of Compound 1, and FGFR1OP2 expression level in those samples is analyzed.
(§2) Tumor tissue acquisition is approved by the ethics committees of each participating hospital and agreed to by each patient via written informed consent and is carried out according to state and institutional regulations on experimental use of human tissues. The patient samples are corrected if tumors >500 mm^3 in size with a necrotic area <30% are used. […]
(§3) Thereafter, the implanted capsules are removed, and tumor cell proliferation is evaluated using the CellTiter Glo Luminescent Cell Viability Assay kit (G7571, Promega, Madison, Wis., US) as instructed by the manufacturer. Luminescence is measured in terms of relative luminance unit (RLU) using a spectrophotometer (SpectraMax M3, Molecular Devices, Sunnyvale, Calif., US). Tumor cell growth inhibition (TCGI) (%) is calculated using the formula: TCGI %=(1−[mean RLU of the treatment group on day 7-mean RLU on day 0]/[Mean RLU of vehicle group on day 7−Mean RLU on day 0])×100%, Each experiment is done in sextuplicate and mean values are reported. […]

[2] = tested on: Pancreatic Cancers (patient tumor cells in mini-PDX capsules); test: Mini-PDX assay, pancreatic cancers; settings: Compound 1 12 mg per kg oral once daily 7 days, effective = P ≤ 0.05, per patient sample
Protocol: as §1, §2, §3

cancer patients = test: Clinical efficacy of Compound 1 in cancer patients; parameters: key to CT Observation: Stable Disease, or SD, signifies that there has been no significant decrease or increase in the size of target lesions (including tumors), based on the smallest sum lesion diameter (LD); Progressive Disease, or PD, signifies that there has been an increase of at least 20% in the sum of the LD of targeted lesions; settings: for CT Observation: per patient
Protocol: Stable Disease, or SD, signifies that there has been no significant decrease or increase in the size of target lesions (including tumors), based on the smallest sum lesion diameter (LD). Progressive Disease, or PD, signifies that there has been an increase of at least 20% in the sum of the LD of targeted lesions.
Patients are treated with Compound 1, given orally at the indicated daily dose. […] Although patients were not selected for high expression of FGFR1OP2 and FGFR1, the clinical response appears related to the expression levels of FGFR1OP2 and FGFR1. Squamous tumors seem particularly susceptible, as both patients with squamous tumors are SDs. Two of the three patients with SD are in 100 mg/day group, one of whom has 20% tumor reduction observed at the second and the fourth cycle by CT examination and is still under treatment. Adverse events are mild, so further dose escalation above 120 mg/day can be considered.

[3] = tested on: clinical tumor samples from patients; test: Mini-PDX assay, all tumor samples from patients
Protocol: FIG. 1 is the RLU (ATP Enzyme activity) of cells from mini-PDX vehicles. The cancer cells derived from patients were embedded in the mini-PDX vehicles and implanted in the mice for cultivating 7 days. The mice were treated with MAX-40279(12mpk, PO, BID) or not. After 7 days, cells in mini-PDX vehicles were collected and ATP Enzyme activity was used to represent the cell viability.
as §1, with “analyzed. […]” for “analyzed.”
as §3

[4] = tested on: Liver Cancers (patient tumor cells in mini-PDX capsules); test: Mini-PDX assay, liver cancers; settings: Compound 1 12 mg per kg oral once daily 7 days, effective = P ≤ 0.05, per patient sample
Protocol: as §1, §2, §3

[5] = tested on: Cholangiocarcinoma (patient tumor cells in mini-PDX capsules); test: Mini-PDX assay, cholangiocarcinoma; settings: Compound 1 12 mg per kg oral once daily 7 days, effective = P ≤ 0.05, per patient sample
Protocol: as §1, §2, §3

COc1cc(F)ccc1-c1c(C)sc2cnc(Nc3cnn(C4CCNCC4)c3)nc12 [Compound 1]
Efficacy (P ≤ 0.05) [1]: Non-effective; also recorded: effective | Efficacy (P ≤ 0.05) [2]: Non-effective; also recorded: effective | CT Observation (cancer patients; 40 mg oral daily dose): SD | CT Observation (cancer patients; 70 mg oral daily dose): PD (Progressive Disease, or PD, signifies that there has been an increase of at least 20% in the sum of the LD of targeted lesions) | tumor reduction by CT examination (cancer patients; 100 mg oral daily dose, CRC, observed at second and fourth cycle): 20% | CT Observation (cancer patients; 100 mg oral daily dose): SD (2×) and PD (Progressive Disease, or PD, signifies that there has been an increase of at least 20% in the sum of the LD of targeted lesions) | Adverse events (cancer patients; patients, 40-100 mg oral daily dose): mild | stabilizes progression of the cancer (patients with SD) (cancer patients; seven patients, 40-100 mg oral daily dose): three of the seven patients | share of tumor samples from patients in which Compound 1 is effective ([3]; 30 tumor samples, mini-PDX, 13/30): 43% | Tumor cell growth inhibition (TCGI) ([3]; FIG. 1, initial screen of 4 samples, 7 days oral administration, compared to placebo): effective TCGI | Efficacy (P ≤ 0.05) [4]: Non-effective; also recorded: effective | Efficacy (P ≤ 0.05) [5]: Non-effective; also recorded: effective
